# Assays:
# Conditions in all cases: 72 h
# Caco-2 [1] = test: cell viability relative to DMSO; higher = less toxic
# Calu-3 [2] = test: as above
# Vero E6 [3] = test: as above
# U2OS [4] = test: as above
# HepG2 [5] = test: as above
# Caco-2 [6] = test: drug sensitivity score (DSS) for viability; higher = more toxic; extreme values may be limits of the assay
# Calu-3 [7] = test: as above
# Vero E6 [8] = test: as above
# U2OS [9] = test: as above
# HepG2 [10] = test: as above
# Caco-2 [11] = test: relative viability EC50 (midpoint between 100% and the lowest measured viability); higher = less toxic
# Calu-3 [12] = test: as above
# Vero E6 [13] = test: as above
# U2OS [14] = test: as above
# HepG2 [15] = test: as above
SMILES,cell viability (Caco-2 [1]; 1 nM) [%],cell viability (Caco-2 [1]; 10 nM) [%],cell viability (Caco-2 [1]; 100 nM) [%],cell viability (Caco-2 [1]; 1000 nM) [%],cell viability (Caco-2 [1]; 10000 nM) [%],cell viability (Calu-3 [2]; 1 nM) [%],cell viability (Calu-3 [2]; 10 nM) [%],cell viability (Calu-3 [2]; 100 nM) [%],cell viability (Calu-3 [2]; 1000 nM) [%],cell viability (Calu-3 [2]; 10000 nM) [%],cell viability (Vero E6 [3]; 1 nM) [%],cell viability (Vero E6 [3]; 10 nM) [%],cell viability (Vero E6 [3]; 100 nM) [%],cell viability (Vero E6 [3]; 1000 nM) [%],cell viability (Vero E6 [3]; 10000 nM) [%],cell viability (U2OS [4]; 1 nM) [%],cell viability (U2OS [4]; 10 nM) [%],cell viability (U2OS [4]; 100 nM) [%],cell viability (U2OS [4]; 1000 nM) [%],cell viability (U2OS [4]; 10000 nM) [%],cell viability (HepG2 [5]; 1 nM) [%],cell viability (HepG2 [5]; 10 nM) [%],cell viability (HepG2 [5]; 100 nM) [%],cell viability (HepG2 [5]; 1000 nM) [%],cell viability (HepG2 [5]; 10000 nM) [%],drug sensitivity score (Caco-2 [6]),drug sensitivity score (Calu-3 [7]),drug sensitivity score (Vero E6 [8]),drug sensitivity score (U2OS [9]),drug sensitivity score (HepG2 [10]),relative viability EC50 (Caco-2 [11]) [µM],relative viability EC50 (Calu-3 [12]) [µM],relative viability EC50 (Vero E6 [13]) [µM],relative viability EC50 (U2OS [14]) [µM],relative viability EC50 (HepG2 [15]) [µM]
OCCc1ccc(OCCn2ccnc2)cc1 [MR-948],94.9,93.1,86.3,108,99.8,96.4,99,97.6,105,104,90,98.6,94.8,95,107,99.4,99.9,98.6,96,96.8,89.2,104,96.7,106,106,0,0,0,0,0,> 10,> 10,> 10,> 10,> 10
Cc1cc(-c2nncc3c(C(C)(C)C)c(OCc4ncnn4C)nn23)no1 [MRK-016],97.7,104,96.6,89,97.2,104,111,108,93.9,100,100,102,98.5,97.6,94.5,101,104,99.1,101,102,105,94.9,104,98.1,96.8,0,0,0,0,0,> 10,> 10,> 10,> 10,> 10
NS(=O)(=O)c1cccc2c1c([N+](=O)[O-])cc1nc(O)c(O)nc12 [NBQX],102,99.3,97,95.6,102,101,85.9,92.4,93.9,103,103,100,101,101,99.8,104,106,98.5,103,102,101,105,101,92.7,106,0,0,0,0,0,> 10,> 10,> 10,> 10,> 10
Nc1ncc2c(n1)CC(c1ccco1)CC2=O (stereo not given) [NKY-80],97,98.3,102,86.4,97.6,106,96.1,110,101,94.8,101,104,100,97.7,101,96.4,97.3,99.7,97.6,100,103,105,109,105,91,0,0,0,0,0,> 10,> 10,> 10,> 10,> 10
NC(=O)CN1CC[C@@H](NC(=O)[C@@H]2CCCN2)C1=O [PAOPA],100,99.7,100,134,96.7,98.1,99.6,106,94.2,106,95.4,97.8,92.5,101,104,100,102,102,105,95.2,89.1,109,97,100,108,0,0,0,0,0,> 10,> 10,> 10,> 10,> 10
N#Cc1ccccc1-c1cc(-c2ccccn2)cn(-c2ccccc2)c1=O [Perampanel],90.5,106,97.5,93.6,104,90.5,97.5,96.5,103,95.6,92.1,101,95.4,96.9,92.4,94,94,99.6,96.2,99.7,98.7,108,104,105,119,0,0,0,0,0,> 10,> 10,> 10,> 10,> 10
CC[N+](CC)(CC)CC(=O)Nc1c(C)cccc1C [QX-314],91.8,93.4,97,102,95.6,102,93.6,89.1,96.9,89.2,95.9,99.2,93.7,97.8,93.6,103,96.9,102,95.7,101,95.3,104,92.6,94.4,95.7,0,0,0,0,0,> 10,> 10,> 10,> 10,> 10
CC1(C)CC(=O)c2c(C(F)(F)F)nn(-c3ccc(C(N)=O)c(N[C@H]4CC[C@H](OC(=O)CN)CC4)c3)c2C1 [SNX-5422],90.2,95.8,85.4,37.3,35.2,85.3,93.9,80.9,40.5,38.7,95.6,94,97.5,47.3,25.8,92,105,68.9,3.4,3.4,101,92.9,15.8,0.9,1.9,13.5,13.1,10.6,21.9,28.8,0.189,0.161,0.612,0.135,0.0395
O=C(Nc1ccccc1-c1cn2c(CN3CCNCC3)csc2n1)c1cnc2ccccc2n1 [SRT1720],88.6,93.3,99.7,98.4,5.4,102,101,103,102,0.9,98.2,97.7,97.7,94.3,0.1,102,99.7,98.1,102,0.2,94,94.4,102,91.6,0.3,5.5,5.3,6.4,5.4,6.9,3.05,3.3,2.72,3.3,2.47
N#Cc1c(N(CC(=O)O)CC(=O)O)sc(C(=O)O)c1CC(=O)O [Strontium Ranelate],93,102,93.6,106,91.2,106,87.9,98.7,104,104,96.7,101,100,97.6,99.8,97.3,102,100,101,96.7,93.7,94.9,103,100,108,0,0,0,0,0,> 10,> 10,> 10,> 10,> 10
CCOc1cncc(/C=C/CCNC)c1 [TC2559],97.9,99.4,100,108,102,87.6,98.9,98.2,95.9,109,94.1,94.5,89.2,90.2,110,101,102,97,101,104,100,93.1,110,96.7,117,0,0,0,0,0,> 10,> 10,> 10,> 10,> 10
CC(C)(C)c1ccc(C(=O)Nc2cn3cc(-n4ccnc4)ccc3n2)cc1 [TC-ASK-10],96.1,101,99.3,109,81.8,97.9,95.6,105,105,93.9,93.2,103,93.8,95.5,99.1,96.4,97.3,99.5,98.8,91.6,87.1,102,98.4,104,77.2,0.2,0,0,0,0.6,> 10,> 10,> 10,> 10,> 10
CC(C)c1c(NC(=O)Nc2ccc(Cl)cc2)c(=O)n(-c2ccccc2)n1C [TC-FPR-43],98.8,105,102,98.6,99.2,106,102,100,105,96.5,96.7,96.8,94.2,96.9,92.4,97.1,103,99.3,107,93.2,90.9,105,101,94.3,94.5,0,0,0,0,0,> 10,> 10,> 10,> 10,> 10

# From the supplement of paper PMC13380429
